Laboratory results as given in patent US11484601B2, “Targeting M2-like tumor-associated macrophages by using melittin-based proapoptotic peptide” (TWI[…]., priority 2018, dated 2022).

Columns and labels:
[1] = test system: mitochondria of M2-type macrophage; assay: Confocal localisation of TMR-conjugated peptides in mitochondria; assay type: cell-based, mouse; settings: 1 μM TMR-conjugated peptide, 2 hours; for presence in mitochondria by image measurement: MitoTracker green
Experimental: In order to identify the invasion and location of MEL-dKLA into the mitochondria of M2-type macrophage, those were identified using fluorescence microscopy via staining. Further, PASCAL 5 LSM image measurement was performed for quantitative analysis.
More specifically, RAW264.7 macrophage was differentiated into M2 which in turn was incubated together with 1 μM TMR-conjugated dKLA, MEL or MEL-dKLA for 2 hours. The peptides that were not conjugated thereto were washed off, and then the cells were stained with 250 nM MitoTracker green (Invitrogen) for 30 minutes. After the staining, the cells were stained for 10 minutes in PBS to which 4 μg/mL 4′6-diamidino-2-phenylidole (DAPI; Sigma-Aldrich, MO, USA) was added. The stained cells were measured with a laser scanning confocal microscope (Carl Zeiss, Germany). The location of MEL-dKLA in the mitochondria was measured with an LSMS image meter (Carl Zeiss).

[2] = test system: 4T1 breast cancer cells; assay: 4T1 breast cancer model in BALB/c mice, lung nodules and H&E; assay type: in vivo, mouse; settings: 175 nmol/kg at 3-day intervals; for nodules on the lung surface: 15 days after cancer cell injection
Experimental: More specifically, 4T1 breast cancer cells (1×10^5) were injected into BALB/c mice. Then, 3 days later, 175 nmol/kg of each of PBS, dKLA, MEL and MEL-dKLA was injected into each group at 3-day intervals. To investigate the level of metastasis and nodules on the lung surface, on 15 days after cancer cell injection, mice were sacrificed and the nodules on the lung surface were identified.
More specifically, for H&E staining, we immersed the tissue in a hematoxylin solution, stained the cell nucleus with a purple color. Then, we removed a remaining-stained portion except for the nucleus with an acidic alcohol solution, and immersed the tissue again in an eosin-added solution to stain the cytoplasm with a pink color. Then, the structure of the cell was observed.

[3] = test system: 4T1-luciferase breast cancer cells; assay: 4T1-luciferase tail vein metastaticity model in BALB/c mice; assay type: in vivo, mouse; settings: 175 nmol/kg once every 3 days, 15 days after tail vein injection
Experimental: Additionally, 4T1-luciferase breast cancer cells (1×10^5) were injected into BALB/c mice through a tail vein in order to identify metastaticity of tumor cells. 3 days after the injection, 175 nmol/kg of each of PBS, dKLA, MEL and MEL-dKLA was injected into each group once every 3 days. 15 days after the cancer cell injection, D-luciferin as a substrate of luciferase enzyme was diluted to a concentration of 40 mg/ml, and then 100 μl thereof was administered to mice in an intraperitoneal administration mode, Then, reaction occurred for about 15 minutes. NightOwl (Berthold Technologies) was used in combination with photographs of mice to analyze the level of settlement and metastasis of cancer cells to the whole body and lungs.

[4] = test system: CCL22; assay: Quantitative real-time PCR of lung tissue, CCL22; assay type: in vivo, mouse; settings: vs PBS-treated group
Experimental: (§1) To measure the ability of MEL-dKLA to inhibit tumor metastasis, expression levels of CD44 known to interact with extracellular matrix ligand to promote metastasis and invasion and thus to be widely expressed in cancer, CCL22 known as M2-type macrophage marker, HIF-1α known as a marker of angiogenesis, metastasis and invasion, Ym1 as a marker of M2-type macrophage, and MMP-9 involved in the migration and settlement of tumor cells were measured via quantitative real-time PCR.
(§2) More specifically, RNA was extracted from lung tissue using an easy-BLUE RNA extraction kit (iNtRON Biotechnology, Korea). Then, cDNA was synthesized according to the manual for cyclescript reverse transcriptase (Bioneer, Korea). cDNA synthesis conditions were as follows: 15 seconds at 95, 10 seconds at 55, and 10 seconds at 72. Each reaction was conducted 3 times. […] Quantitative real-time PCR was performed using the SensiFAST SYBR no-Rox kit (Bioline, Korea).

[5] = test system: HIF-1α; assay: Quantitative real-time PCR of lung tissue, HIF-1α; assay type: in vivo, mouse; settings: vs PBS-treated group
Experimental: as §1, §2

[6] = test system: Ym1; assay: Quantitative real-time PCR of lung tissue, Ym1; assay type: in vivo, mouse; settings: vs PBS-treated group
Experimental: as §1, §2

[7] = test system: MMP-9; assay: Quantitative real-time PCR of lung tissue, MMP-9; assay type: in vivo, mouse
Experimental: as §1, §2

[8] = test system: M2-type tumor-associated macrophage (CD45+F4/80+CD206+); assay: Flow cytometry of tumor tissue, M2-type TAM; assay type: in vivo, mouse
Experimental: More specifically, the tumor cells were thinly crushed and separated from each other in DMEM to which DNasel (1 U/mL) and collagenase D (1 mg/mL) were added. The tissue was gently agitated for 1 hour at 37° C., and separated using a […] nylon mesh filter. Red blood cells were dissolved in Phrmlyse buffer (BE bioscience). Individual cells passed through a 40-μm nylon mesh filter and then were stained with following antibodies: CD4+ T cell (CD45+CD4+CD8−), CD8+ T cell (CD45+CD4−CD8+), Foxp3+ regulatory T cell (CD4+CD25+Foxp3+), dendritic cell (CD45+CD11b+CD11c+), and M1 (CD45+F4/80+CD86+) or M2 macrophage (CD45+F4/80+CD206+): anti-CD45-FITC, anti-CD4-phycoerythrin (PE), anti-CD8-allophycocyanin (APC), anti-CD4-FITC, anti-CD25-PE, anti-Foxp3-Alexa Fluor647, anti-CD11b-APC, anti-CD11c-APCcy7, anti-Grl-PEcy7, anti-CD86-PEcy7, and anti-CD206-APC antibodies. Annexin-V was previously treated to measure the cell percentage of macrophages.

CC[C@H](C)[C@H](NC(=O)CN)C(=O)NCC(=O)N[C@@H](C)C(=O)N[C@H](C(=O)N[C@@H](CC(C)C)C(=O)N[C@@H](CCCCN)C(=O)N[C@H](C(=O)N[C@@H](CC(C)C)C(=O)N[C@H](C(=O)N[C@H](C(=O)NCC(=O)N[C@@H](CC(C)C)C(=O)N1CCC[C@H]1C(=O)N[C@@H](C)C(=O)N[C@@H](CC(C)C)C(=O)N[C@H](C(=O)N[C@@H](CO)C(=O)N[C@@H](Cc1c[nH]c2ccccc12)C(=O)N[C@H](C(=O)N[C@@H](CCCCN)C(=O)N[C@@H](CCCNC(=N)N)C(=O)N[C@@H](CCCCN)C(=O)N[C@@H](CCCNC(=N)N)C(=O)N[C@@H](CCC(N)=O)C(=O)N[C@@H](CCC(N)=O)C(N)=O)[C@@H](C)CC)[C@@H](C)CC)[C@@H](C)O)[C@@H](C)O)C(C)C)C(C)C [MEL]
correlation with mitochondria [1]: did not have any association with mitochondria
presence in mitochondria by image measurement [1]: could not be identified therein
metastasis to the lung by H&E staining [2]: relatively smaller metastasis occurred
nodules on the lung surface [2]: no reduction thereof was observed
number of nodules ([2]; lungs): no significant decrease
metastaticity, luminescence of cancer cells throughout the whole body [3]: metastasis was reduced
expression of CCL22 [4]: not significantly different
expression of HIF-1α [5]: not significantly different
expression of Ym1 [6]: no significant difference
expression of MMP-9 [7]: lower compared to that in the PBS-treated group
M2-type TAM cells compared to the PBS-treated group [8]: decreased by half
proportion of M2-type tumor-associated F4/80+ CD206+ TAM in CD45+ leukocytes [8]: about 10%

d[KLAKLAKKLAKLAK] (D-amino acids) [dKLA, pro-apoptotic peptide KLA, used as control]
correlation with mitochondria [1]: did not have any association with mitochondria
presence in mitochondria by image measurement [1]: a small amount of dKLA was coupled to the cells
metastasis to the lung by H&E staining [2]: tumor cells were widely spread and metastasis occurred
nodules on the lung surface [2]: no reduction thereof was observed
metastaticity, luminescence of cancer cells throughout the whole body [3]: measured at a high level throughout the body
expression of CCL22 [4]: not significantly different
expression of HIF-1α [5]: not significantly different
expression of Ym1 [6]: increased significantly
expression of MMP-9 [7]: high
proportion of M2-type tumor-associated F4/80+ CD206+ TAM in CD45+ leukocytes [8]: about 20%
